Test results from ChEMBL document CHEMBL5678818, “Discovery of potent SOS1 inhibitors that block RAS activation via disruption of the RAS-SOS1 interaction” (Proc Natl Acad Sci U S A, 2019).

Experiments:
[1] = target: RAC-gamma serine/threonine-protein kinase (Homo sapiens) (UniProt Q9Y243); assay: Inhibition of AKT3 (unknown origin) assessed as residual activity at 100 nM by KINOMEscan analysis relative to control
[2] = target: Dual specificity testis-specific protein kinase 1 (Homo sapiens) (UniProt Q15569); assay: Inhibition of TESK1 (unknown origin) assessed as residual activity at 100 nM by KINOMEscan analysis relative to control
[3] = target: Serine/threonine-protein kinase PAK 5 (Homo sapiens) (UniProt Q9P286); assay: Inhibition of PAK7 (unknown origin) assessed as residual activity at 100 nM by KINOMEscan analysis relative to control
[4] = target: T1, Serine/threonine-protein kinase RIO1 (Homo sapiens) (UniProt Q9BRS2); assay: Inhibition of RIOK1 (unknown origin) assessed as residual activity at 100 nM by KINOMEscan analysis relative to control
T1 sequence (whole entry): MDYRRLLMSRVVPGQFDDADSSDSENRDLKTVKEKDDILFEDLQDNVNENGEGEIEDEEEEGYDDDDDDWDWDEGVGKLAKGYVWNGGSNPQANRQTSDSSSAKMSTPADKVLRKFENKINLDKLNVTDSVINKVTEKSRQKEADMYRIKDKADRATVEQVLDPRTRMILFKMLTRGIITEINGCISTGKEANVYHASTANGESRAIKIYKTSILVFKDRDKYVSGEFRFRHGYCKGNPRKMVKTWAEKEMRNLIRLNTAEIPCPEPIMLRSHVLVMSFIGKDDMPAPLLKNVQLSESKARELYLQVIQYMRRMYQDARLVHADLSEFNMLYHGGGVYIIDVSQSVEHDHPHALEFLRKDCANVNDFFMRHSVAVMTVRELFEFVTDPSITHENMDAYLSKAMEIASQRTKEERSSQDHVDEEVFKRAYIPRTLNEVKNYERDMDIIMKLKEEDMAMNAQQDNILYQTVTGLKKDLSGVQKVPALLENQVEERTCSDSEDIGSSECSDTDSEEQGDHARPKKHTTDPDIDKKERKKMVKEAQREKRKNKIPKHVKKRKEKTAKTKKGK

[5] = target: Ephrin type-A receptor 4 (Homo sapiens) (UniProt P54764); assay: Inhibition of EPHA4 (unknown origin) assessed as residual activity at 100 nM by KINOMEscan analysis relative to control
Sequence of Ephrin type-A receptor 4 (Homo sapiens) (P54764 whole entry): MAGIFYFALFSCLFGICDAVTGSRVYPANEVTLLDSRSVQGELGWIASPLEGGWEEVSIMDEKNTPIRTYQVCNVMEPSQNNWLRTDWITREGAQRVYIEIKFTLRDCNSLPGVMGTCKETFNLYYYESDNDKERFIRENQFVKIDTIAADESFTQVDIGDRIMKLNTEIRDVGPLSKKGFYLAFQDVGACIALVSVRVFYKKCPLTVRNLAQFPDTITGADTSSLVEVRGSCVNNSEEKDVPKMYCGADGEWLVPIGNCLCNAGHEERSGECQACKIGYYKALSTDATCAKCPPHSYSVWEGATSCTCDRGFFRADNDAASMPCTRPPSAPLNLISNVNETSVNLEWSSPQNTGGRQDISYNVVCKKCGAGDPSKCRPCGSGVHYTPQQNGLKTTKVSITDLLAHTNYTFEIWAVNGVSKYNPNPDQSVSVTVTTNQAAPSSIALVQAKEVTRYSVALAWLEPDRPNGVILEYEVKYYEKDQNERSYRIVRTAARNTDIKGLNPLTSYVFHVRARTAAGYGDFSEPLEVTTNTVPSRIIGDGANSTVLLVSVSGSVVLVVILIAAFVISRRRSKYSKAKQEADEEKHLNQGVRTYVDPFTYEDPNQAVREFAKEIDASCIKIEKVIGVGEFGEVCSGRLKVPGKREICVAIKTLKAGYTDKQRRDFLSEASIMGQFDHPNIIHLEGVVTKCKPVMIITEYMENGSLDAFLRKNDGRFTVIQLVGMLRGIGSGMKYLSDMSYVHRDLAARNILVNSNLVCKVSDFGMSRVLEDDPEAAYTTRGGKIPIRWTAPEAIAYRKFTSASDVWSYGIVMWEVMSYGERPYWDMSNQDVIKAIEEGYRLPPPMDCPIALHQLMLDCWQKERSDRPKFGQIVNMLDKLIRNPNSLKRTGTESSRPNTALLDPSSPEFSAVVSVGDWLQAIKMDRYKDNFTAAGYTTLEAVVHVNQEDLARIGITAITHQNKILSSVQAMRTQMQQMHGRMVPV

[6] = test system: Epidermal growth factor receptor (Homo sapiens), P00533 [UNDEFINED MUTATION]; assay: Inhibition of EGFR S752-I759del mutant (unknown origin) assessed as residual activity at 100 nM by KINOMEscan analysis relative to control
[7] = test system: Epidermal growth factor receptor (Homo sapiens), P00533 [L858R]; assay: Inhibition of EGFR L858R mutant (unknown origin) assessed as residual activity at 100 nM by KINOMEscan analysis relative to control
[8] = target: Ribosomal protein S6 kinase alpha-2 (Homo sapiens) (UniProt Q15349); assay: Inhibition of N-terminal RSK3 […] domain 1 (unknown origin) assessed as residual activity at 100 nM by KINOMEscan analysis relative to control
Sequence of Ribosomal protein S6 kinase alpha-2 (Homo sapiens) (Q15349 whole entry, the tested form may be a part): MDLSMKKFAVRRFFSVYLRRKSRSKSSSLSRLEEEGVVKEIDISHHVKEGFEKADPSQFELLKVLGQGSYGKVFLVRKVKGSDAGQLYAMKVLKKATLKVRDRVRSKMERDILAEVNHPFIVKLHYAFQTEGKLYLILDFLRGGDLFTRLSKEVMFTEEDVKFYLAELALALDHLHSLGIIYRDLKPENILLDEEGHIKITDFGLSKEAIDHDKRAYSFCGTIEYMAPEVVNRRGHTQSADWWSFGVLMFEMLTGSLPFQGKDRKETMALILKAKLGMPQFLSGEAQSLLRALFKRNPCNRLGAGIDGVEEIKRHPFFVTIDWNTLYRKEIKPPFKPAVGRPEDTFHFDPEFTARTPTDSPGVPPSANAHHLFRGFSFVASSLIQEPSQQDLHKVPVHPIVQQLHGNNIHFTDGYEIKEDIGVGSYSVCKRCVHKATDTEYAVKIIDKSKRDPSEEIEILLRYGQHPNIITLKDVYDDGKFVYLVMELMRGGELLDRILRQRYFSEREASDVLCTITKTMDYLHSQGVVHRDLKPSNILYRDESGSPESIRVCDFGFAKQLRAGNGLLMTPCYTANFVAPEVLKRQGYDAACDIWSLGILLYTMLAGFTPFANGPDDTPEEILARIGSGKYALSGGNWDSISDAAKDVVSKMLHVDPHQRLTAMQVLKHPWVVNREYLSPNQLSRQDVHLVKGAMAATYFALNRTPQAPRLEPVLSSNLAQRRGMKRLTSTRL

[9] = target: T2, Son of sevenless homolog 1 (Homo sapiens) (UniProt Q07889); assay: Binding affinity to N-terminal His10-tagged wild-type recombinant human SOS1 catalytic domain (564 to 1049 residues) expressed in Escherichia coli assessed as change in Gibbs free energy by ITC analysis
T2 sequence (whole entry): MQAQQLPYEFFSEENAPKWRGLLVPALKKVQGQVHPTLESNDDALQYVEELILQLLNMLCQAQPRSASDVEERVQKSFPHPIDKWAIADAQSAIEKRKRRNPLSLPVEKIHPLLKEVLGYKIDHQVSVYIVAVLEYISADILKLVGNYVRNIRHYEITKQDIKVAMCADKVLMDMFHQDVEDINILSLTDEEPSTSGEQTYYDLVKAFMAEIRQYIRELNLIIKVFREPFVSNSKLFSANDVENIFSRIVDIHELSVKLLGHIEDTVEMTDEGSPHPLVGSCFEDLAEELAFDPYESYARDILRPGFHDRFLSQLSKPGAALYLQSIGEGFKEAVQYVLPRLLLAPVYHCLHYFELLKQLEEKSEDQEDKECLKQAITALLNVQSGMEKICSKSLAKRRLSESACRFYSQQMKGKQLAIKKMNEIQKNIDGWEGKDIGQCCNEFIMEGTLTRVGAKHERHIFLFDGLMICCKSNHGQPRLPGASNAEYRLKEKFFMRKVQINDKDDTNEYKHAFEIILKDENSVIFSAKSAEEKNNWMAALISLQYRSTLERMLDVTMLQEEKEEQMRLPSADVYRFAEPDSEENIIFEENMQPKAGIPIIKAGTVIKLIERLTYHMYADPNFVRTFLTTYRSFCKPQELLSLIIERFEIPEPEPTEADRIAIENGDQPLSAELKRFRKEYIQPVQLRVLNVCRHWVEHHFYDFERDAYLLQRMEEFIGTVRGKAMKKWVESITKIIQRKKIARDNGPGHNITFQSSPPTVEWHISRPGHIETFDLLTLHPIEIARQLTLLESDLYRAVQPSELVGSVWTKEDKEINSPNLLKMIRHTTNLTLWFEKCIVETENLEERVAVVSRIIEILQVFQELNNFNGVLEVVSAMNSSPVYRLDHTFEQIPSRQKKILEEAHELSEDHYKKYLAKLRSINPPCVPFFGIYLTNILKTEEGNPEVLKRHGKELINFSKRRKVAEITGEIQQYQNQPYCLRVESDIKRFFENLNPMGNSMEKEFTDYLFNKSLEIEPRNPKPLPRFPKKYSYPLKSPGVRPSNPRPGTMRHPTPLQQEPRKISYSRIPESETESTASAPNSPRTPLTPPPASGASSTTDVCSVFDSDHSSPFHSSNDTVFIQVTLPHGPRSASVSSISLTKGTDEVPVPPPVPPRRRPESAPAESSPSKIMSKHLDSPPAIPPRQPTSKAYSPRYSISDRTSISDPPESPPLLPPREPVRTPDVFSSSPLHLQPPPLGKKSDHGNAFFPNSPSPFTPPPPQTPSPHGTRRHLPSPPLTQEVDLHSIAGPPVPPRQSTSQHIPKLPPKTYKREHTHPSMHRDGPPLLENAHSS

[10] = target: Rho-associated protein kinase 1 (Homo sapiens) (UniProt Q13464); assay: Inhibition of ROCK1 (unknown origin) assessed as residual activity at 100 nM by KINOMEscan analysis relative to control
Sequence of Rho-associated protein kinase 1 (Homo sapiens) (Q13464 2-1354 limits assumed): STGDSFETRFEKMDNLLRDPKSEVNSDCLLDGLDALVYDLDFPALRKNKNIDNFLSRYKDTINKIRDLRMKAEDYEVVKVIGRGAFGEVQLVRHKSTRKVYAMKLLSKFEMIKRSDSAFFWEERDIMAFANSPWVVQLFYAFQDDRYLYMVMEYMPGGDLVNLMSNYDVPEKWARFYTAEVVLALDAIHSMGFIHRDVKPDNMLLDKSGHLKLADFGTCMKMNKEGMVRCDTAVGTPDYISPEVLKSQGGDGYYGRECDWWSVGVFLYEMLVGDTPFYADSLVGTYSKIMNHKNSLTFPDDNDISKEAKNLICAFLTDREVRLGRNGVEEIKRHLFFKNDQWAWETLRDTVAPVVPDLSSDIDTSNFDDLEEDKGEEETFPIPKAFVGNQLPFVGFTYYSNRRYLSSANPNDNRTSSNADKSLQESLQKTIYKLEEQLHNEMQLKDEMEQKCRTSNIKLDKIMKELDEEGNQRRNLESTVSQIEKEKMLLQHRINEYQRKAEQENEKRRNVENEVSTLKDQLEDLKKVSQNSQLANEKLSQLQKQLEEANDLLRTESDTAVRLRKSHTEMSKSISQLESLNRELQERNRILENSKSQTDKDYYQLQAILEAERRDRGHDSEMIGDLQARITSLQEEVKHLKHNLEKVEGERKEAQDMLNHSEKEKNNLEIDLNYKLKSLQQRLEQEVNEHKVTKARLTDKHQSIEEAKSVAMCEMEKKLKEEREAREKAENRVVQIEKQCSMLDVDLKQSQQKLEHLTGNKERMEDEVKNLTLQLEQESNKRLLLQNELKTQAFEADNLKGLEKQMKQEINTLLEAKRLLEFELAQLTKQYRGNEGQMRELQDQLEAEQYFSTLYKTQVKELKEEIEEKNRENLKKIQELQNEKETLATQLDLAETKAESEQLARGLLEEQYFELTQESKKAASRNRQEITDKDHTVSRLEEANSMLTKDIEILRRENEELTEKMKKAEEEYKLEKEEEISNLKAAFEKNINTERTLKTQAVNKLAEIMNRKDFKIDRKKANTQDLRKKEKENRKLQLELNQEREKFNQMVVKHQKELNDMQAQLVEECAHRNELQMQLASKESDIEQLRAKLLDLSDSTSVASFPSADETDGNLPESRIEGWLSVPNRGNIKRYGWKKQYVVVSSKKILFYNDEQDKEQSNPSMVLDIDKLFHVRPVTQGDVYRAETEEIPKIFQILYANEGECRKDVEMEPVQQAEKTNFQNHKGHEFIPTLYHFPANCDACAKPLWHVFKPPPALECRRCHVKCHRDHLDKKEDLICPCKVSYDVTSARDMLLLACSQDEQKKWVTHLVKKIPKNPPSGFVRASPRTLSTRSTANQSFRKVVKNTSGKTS

[11] = target: Interleukin-1 receptor-associated kinase 1 (Homo sapiens) (UniProt P51617); assay: Inhibition of IRAK1 (unknown origin) assessed as residual activity at 100 nM by KINOMEscan analysis relative to control
Sequence of Interleukin-1 receptor-associated kinase 1 (Homo sapiens) (P51617 whole entry, looked up): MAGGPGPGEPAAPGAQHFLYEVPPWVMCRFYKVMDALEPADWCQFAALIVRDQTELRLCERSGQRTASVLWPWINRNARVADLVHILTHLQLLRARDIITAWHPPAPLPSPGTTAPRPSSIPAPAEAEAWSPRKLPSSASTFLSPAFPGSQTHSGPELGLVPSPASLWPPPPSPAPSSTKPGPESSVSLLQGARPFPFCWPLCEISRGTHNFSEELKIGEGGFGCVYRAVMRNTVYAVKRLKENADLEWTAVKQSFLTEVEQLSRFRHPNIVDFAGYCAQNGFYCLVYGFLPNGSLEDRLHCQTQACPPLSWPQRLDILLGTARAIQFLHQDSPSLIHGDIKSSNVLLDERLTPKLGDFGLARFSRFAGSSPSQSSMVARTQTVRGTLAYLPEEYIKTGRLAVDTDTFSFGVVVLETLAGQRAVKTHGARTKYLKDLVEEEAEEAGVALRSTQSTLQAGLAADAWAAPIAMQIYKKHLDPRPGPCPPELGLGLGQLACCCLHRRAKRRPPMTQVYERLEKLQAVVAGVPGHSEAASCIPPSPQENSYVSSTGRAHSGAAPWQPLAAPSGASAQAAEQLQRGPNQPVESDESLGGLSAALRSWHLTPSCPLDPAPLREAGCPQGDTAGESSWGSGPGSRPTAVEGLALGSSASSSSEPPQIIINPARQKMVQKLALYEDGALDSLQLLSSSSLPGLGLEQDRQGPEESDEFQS

[12] = target: MAP kinase-activated protein kinase 2 (Homo sapiens) (UniProt P49137); assay: Inhibition of MAPKAPK2 (unknown origin) assessed as residual activity at 100 nM by KINOMEscan analysis relative to control
Sequence of MAP kinase-activated protein kinase 2 (Homo sapiens) (P49137 whole entry, looked up): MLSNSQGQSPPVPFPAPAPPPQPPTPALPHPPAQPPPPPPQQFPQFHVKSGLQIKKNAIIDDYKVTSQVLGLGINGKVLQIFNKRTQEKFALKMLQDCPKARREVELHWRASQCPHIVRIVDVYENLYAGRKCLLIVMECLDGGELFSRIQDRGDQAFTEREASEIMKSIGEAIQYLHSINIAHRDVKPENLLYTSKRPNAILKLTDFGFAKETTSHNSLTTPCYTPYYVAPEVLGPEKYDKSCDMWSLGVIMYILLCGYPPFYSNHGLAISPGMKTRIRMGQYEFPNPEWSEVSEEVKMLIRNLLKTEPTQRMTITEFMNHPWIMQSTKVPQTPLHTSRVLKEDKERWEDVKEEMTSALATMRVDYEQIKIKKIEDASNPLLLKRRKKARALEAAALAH

[13] = test system: Receptor-type tyrosine-protein kinase FLT3 (Homo sapiens), P36888 [K663Q]; assay: Inhibition of FLT3 K663Q mutant (unknown origin) assessed as residual activity at 100 nM by KINOMEscan analysis relative to control

Sequence of RAC-gamma serine/threonine-protein kinase (Homo sapiens) (Q9Y243 whole entry): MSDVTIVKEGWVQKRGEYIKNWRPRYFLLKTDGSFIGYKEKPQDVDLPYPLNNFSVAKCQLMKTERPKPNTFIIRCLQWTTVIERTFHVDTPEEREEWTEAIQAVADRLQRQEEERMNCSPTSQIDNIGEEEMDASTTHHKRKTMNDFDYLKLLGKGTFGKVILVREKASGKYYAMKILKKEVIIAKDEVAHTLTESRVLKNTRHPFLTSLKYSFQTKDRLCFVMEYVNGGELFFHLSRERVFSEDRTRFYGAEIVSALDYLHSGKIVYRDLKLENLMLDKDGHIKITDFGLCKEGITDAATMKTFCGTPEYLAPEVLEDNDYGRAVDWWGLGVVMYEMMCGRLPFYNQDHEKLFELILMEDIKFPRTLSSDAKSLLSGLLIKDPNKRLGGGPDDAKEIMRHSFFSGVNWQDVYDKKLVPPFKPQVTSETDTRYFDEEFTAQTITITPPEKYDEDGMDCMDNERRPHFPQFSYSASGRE

Question: `COc1cc2ncnc(N[C@H](C)c3cccc4ccccc34)c2cc1OC` was tested. Which Activity [1] did it give?
Answer: The Activity was 94%.

Question: What about the Activity [2] of the same molecule?
Answer: The Activity was 73%.

Question: And the Activity [3]?
Answer: Its Activity is 100%.

Question: What about the Activity [4] of the same molecule?
Answer: The Activity was 58%.

Question: What about the Activity [5] of the same molecule?
Answer: The Activity was 86%.

Question: What about the Activity [6] of the same molecule?
Answer: The Activity was 93%.

Question: And the Activity [7]?
Answer: Its Activity is 95%.

Question: What about the Activity [8] of the same molecule?
Answer: Its Activity is 100%.

Question: What about the deltaG [9] of the same molecule?
Answer: Its deltaG is -8.6 kcal/mol.

Question: What about the Activity [10] of the same molecule?
Answer: The Activity was 77%.

Question: What about the Activity [11] of the same molecule?
Answer: The Activity was 94%.

Question: What about the Activity [12] of the same molecule?
Answer: The Activity was 83%.

Question: And the Activity [13]?
Answer: Its Activity is 90%.
